By pIC50 is commonly meant −log10 of the IC50, conventionally taken in molar units. A lower pIC50 goes with a large IC50.

The structures appear in SMILES notation. pIC50: −log10 of the molar value.

These results are taken from BindingDB's records for doi:10.1016/j.bmcl.2006.01.105 (Wyeth Research, 2006).

The experiment is described as follows: Antiviral activity against Hepatitis C virus replicon in Huh7 cells. (In general: Replicon systems follow genome replication, usually without infectious particles.)

`CCCC1(C(=O)O)CCc2c1[nH]c1c(Cl)ccc(Cl)c21` (stereo unspecified) [5,8-dichloro-3-propyl-1,2,3,4-tetrahydrocyclopenta[b]indole-3-carboxylic acid] had a pIC50 of 4.57.
